# Experimental data taken from patent US20120196766A1, “Therapeutic Use of Farnesyltransferase Inhibitors and Methods of Monitoring the Efficacy Thereof” (priority 2004, published 2012).
# Read-outs that look alike come from different tables or passages of the source.
# What was measured:
# THP-1 cells [1] = assay: LPS-induced cytokine, chemokine and MMP-9 secretion by THP-1 cells (ELISA); type: cell-based, Human
# Procedure: THP-1 cells were cultured in RPMI1640 medium, supplemented with 10% FBS/100 units/ml Penicillin/10 μg/ml Streptomycin at 37° C., under 5% CO2. […] For the untreated control group (no LPS, no compound) and LPS alone group, equivalent volumes of DMSO were added to the medium. Cells were cultured at 37° C. and pellets were collected at 0 hr, 1 hr, 3 hr, 6 hr, 12 hr & 24 hr. Cell pellets were stored at −80° C. if RNA isolation was not conducted immediately. For experiments to study cytokine secretion in culture supernatants, THP-1 cells were washed twice with PBS, resuspended at 3.4×10^5/ml and cultured in 96-well plates at 250 μL, per well at 37° C. […] Supernatants were collected at different time points as indicated in the figures and were kept at ≦−20° C. until analysis of cytokine production.
# (§1) Human IL-6, IL18, IL1β, MCP-1, MMP-9, and mouse IL-6, IL18, TNFα, MCP-1 and IL-1β were measured with ELISA kits (R&D Systems) according to the manufacturer's instructions.
# (§2) Samples were tested for cytokines using the Bio-plex cytokine assay kit (Bio-Rad Laboratories, Inc.) according to the manufacturer's instructions. Briefly, 50 μL anti-cytokine antibody conjugated beads were added to wells of a filter plate pre-equilibrated with assay buffer. The beads were washed, then 50 μL of undiluted cell culture supernatant or 4-fold diluted plasma samples were added and incubated for 2 hours. Biotinylated anti-cytokine antibody (25 μL) was added to each well and the plate was incubated with shaking for 1.5 hours. Streptavidin-PE (50 μL) was added to each well and the plate was incubated with shaking for 45 min. between incubations, wells were washed 3 times with 100 μL wash buffer and unbound analytes were filtered using a vacuum manifold. Following the last wash step, 125 μL of assay buffer was added to each well and the plate was placed on a shaker for 10 min. The plate was read on a Luminex^100 instrument (Luminex Corporation, Austin, Tex.) according to the manufacturer's instructions. The concentration of cytokine was determined from a standard curve assayed at the same time.
# THP-1 cells [2] = assay: Inhibition of LPS-induced IL-6 release in THP-1 cells, concentration series; type: cell-based; conditions: Homo sapiens, 100 ng/ml LPS, 0.5% FBS, supernatants at 48 hr, read-out: IC50 for inhibition of LPS-induced IL-6 secretion
# Procedure: (§3) THP-1 cells at 3.4×10^5/ml were cultured in 96-well plates in 0.5% FBS/RPMI 1640, in the absence or presence of 100 ng/ml LPS, plus or minus tipifarnib (starting from 5 μM, followed by 3-fold series dilution). The concentrations of tipifarnib were: 5 μM, 1.67 μM, 0.56 μM, 0.19 μM and 0.06 μM. Supernatants were collected at 48 hr. IL6 was quantified using ELISA kit from R&D Systems.
# as §3, with “Medium components were certified to contain less than 0.3 endotoxin units/ml. THP-1” for “THP-1”, “LPS” for “LPS,”, “tested” for “quantified”
# BALB/c mice = assay: LPS-induced cytokine production in vivo (murine model of LPS-induced inflammation); conditions: for inhibition at 50 mg/kg: Mus musculus; for MCP-1 production: tipifarnib
# Procedure: The experiments were performed on female BALB/c mice (6-7 week old; Charles River Laboratories, Inc. MA). […] The control mice received the vehicle (20% cyclodextran) only. 20 μg LPS (Sigma), diluted in PBS, was injected into each mouse intraperitoneally. Blood samples were collected either by eye bleeding or cardiac puncture at 1 and 2 hours after LPS injection in one experiment, and at 2 and 3 hours after LPS injection in a second experiment. Plasma samples were collected by centrifugation, and stored at ≦−20° C. before being tested for cytokines using individual ELISA kits or Luminex analysis (see below).
# as §1, §2
# THP-1 cells [3] = assay: Western blot analysis of LPS, TNF-α and IL-1α induced signaling in THP-1 cells; type: cell-based, Human
# Procedure: THP-1 cells in 0.5% FBS/RPMI were pre-treated with or without tipifarnib for 18 hours, and subsequently stimulated with LPS (100 ng/ml), TNF-α (10 ng/ml) or IL-1α (5 ng/ml) for 30 minutes. Cells were harvested, washed three times in ice-cold PBS, and lysed in lysis buffer (20 mM Tris (pH 7.5), 150 mM NaCl, 1 mM EDTA, 1 mM EGTA, 1% Triton X-100, 2.5 mM sodium pyrophosphate, 1 mM ([…], 1 mM Na3VO4, 1 μg/ml Leupeptin, 1 mM PMSF). Cell lysates from each sample were mixed with an equal amount of 2× SDS-PAGE sample buffer (Invitrogen), and proteins were separated by electrophoresis in Tris-glycine 10-20% gradient gels (Novex), and transferred to nitrocellulose membranes (PROTRAN; Schleicher & Schuell). The membranes were blocked with 3% BSA in PBS-0.05% Tween-20, and sequentially incubated with primary antibodies and HRP-conjugated secondary antibodies (anti-rabbit IgG or anti-mouse IgG and IgM; PIERCE), followed by ECL detection (Amersham Biosciences). The primary antibodies used were rabbit polyclonal anti-IκBa, and -p38 (Santa Cruz), mouse monoclonal anti-H-Ras (Chemicon), mouse monoclonal anti-phospho-p38 and rabbit polyclonal anti-phospho-Erk (Cell Signaling Technology).
# [4] = cited from earlier work
# [5] = test system: collagen-induced arthritis; conditions: WO 00/01386; cited from earlier work
# [6] = second experiment, 3 hours (results not shown)
smiles,measurement,setting,value
"Cn1cncc1C(N)(c1ccc(Cl)cc1)c1ccc2c(c1)c(-c1cccc(Cl)c1)cc(=O)n2C (single isomer, unassigned; (+)) [tipifarnib, (+)-6-[amino(4-chlorophenyl)(1-methyl-1H-imidazol-5-yl)methyl]-4-(3-chlorophenyl)-1-methyl-2(1H)-quinolinone]","LPS-induced TNF-α production, second phase of induction",THP-1 cells [1]; after 22 h up to 48 hours,dose-dependent inhibition
same,"LPS-induced TNF-α production, initial peak",THP-1 cells [1]; between 5 and 10 hours,unaffected
same,LPS-induced IL-8 production,"THP-1 cells [1]; simvastatin 5 and 10 μM or tipifarnib 2 and 5 μM, 22, 30 and 48 hours","no significant inhibition of IL-8 production, except for 5 μM at 22 hours"
same,LPS-induced MMP-9 secretion,"THP-1 cells [1]; simvastatin 5 and 10 μM or tipifarnib 2 and 5 μM, 30 and 48 hours",dose-dependently inhibited
same,extent of inhibition of MCP-1 secretion compared with 10 μM simvastatin,THP-1 cells [1]; tipifarnib 2 μM,much greater
same,"LPS-induced TNF-α production, second phase of induction",THP-1 cells [1]; tipifarnib 5 μM,totally inhibited
same,IL-1β secretion,THP-1 cells [1]; tipifarnib 2 and 5 μM,dose-dependent inhibition
same,inhibition of IL-6 release,THP-1 cells [1]; tipifarnib 2 and 5 μM,inhibition was observed at all time points
same,MCP-1 secretion,"THP-1 cells [1]; tipifarnib 2 and 5 μM, up to 48 hours",dose-dependent inhibition
same,IC50,THP-1 cells [2],~1000 nM
same,LPS-induced TNF-α production,"BALB/c mice; 50 mg/kg oral 24, 17 and 1 hour before LPS 20 μg i.p., plasma at 1 and 2 hours",highly significant inhibition
same,inhibition at 50 mg/kg,"BALB/c mice; 50 mg/kg oral before LPS, 2 hours, first experiment, read-out: inhibition of MIP-1α production",~50%
same,inhibition at 50 mg/kg,"BALB/c mice; tipifarnib 50 mg/kg oral before LPS, after 3 hours, read-out: inhibition of IL-6 production",~50%
same,LPS-induced IL-8,BALB/c mice; results not shown,No effects
same,LPS-induced RANTES,BALB/c mice; results not shown,No effects
same,IL12-p40 induction by LPS,BALB/c mice; [6],inhibited
same,IL12-p70 induction by LPS,BALB/c mice; [6],inhibited
same,IL-1β production,"BALB/c mice; tipifarnib 50 mg/kg oral before LPS, after 3 hours",almost complete inhibition
same,MCP-1 production,BALB/c mice; 2 hours,significant inhibition
same,MCP-1 production,BALB/c mice; 3 hours,a decrease that did not reach statistical significance
same,IκB degradation induced by IL-1α,THP-1 cells [3]; 2 μM tipifarnib for 18 hours,no inhibition
same,IκB degradation induced by TNF-α,THP-1 cells [3]; 2 μM tipifarnib for 18 hours,no inhibition
same,LPS-induced IκB degradation,THP-1 cells [3]; 2 μM tipifarnib for 18 hours,significantly inhibited
same,LPS-induced p38 phosphorylation,THP-1 cells [3]; 2 μM tipifarnib for 18 hours,partially reduced
same,P38 protein expression,THP-1 cells [3]; 2 μM tipifarnib for 18 hours,not affected
same,TNF-α induced p38 phosphorylation,THP-1 cells [3]; 2 μM tipifarnib for 18 hours,No significant inhibition
same,H-Ras farnesylation,"THP-1 cells [3]; tipifarnib pre-treatment, all treatment groups",partially inhibited
same,ERK phosphorylation,"THP-1 cells [3]; tipifarnib pre-treatment, control and stimulated cells",reduced
same,protein binding,[4],highly protein-bound
same,disease scores,[5],reduction of disease scores
